Where two headings read alike, the source gives them in different places.
Columns and labels:
[1] = system: wild-type ZIKV (Ugandan MR766 strain) in Vero cells; assay: ZIKV cytopathic effect (CPE) inhibition qHTS assay, CellTiter-Glo readout; format: cell-based, Zika virus; conditions: for IC50: 48 h, read-out: ZIKV-infection (CPE, ZIKV Antiviral Assays), IC50
[2] = system: caspase-3 activity induced by ZIKV in Vero cells; assay: cells; format: cell-based; conditions: Zika virus, Vero, 48 h, read-out: Caspase 3 (ZIKV Antiviral Assays), IC50
[3] = system: ZIKV-RLuc (Cambodian strain FSS13025); assay: microbe, parasite or virus in culture; format: cell-based, Zika virus; conditions: Zika virus, Vero, 48 h, read-out: Rluc-ZIKV (ZIKV Antiviral Assays), IC50
[4] = system: ZIKV-mCherry (Cambodian strain FSS13025); assay: microbe, parasite or virus in culture; format: cell-based, Zika virus; conditions: for AC50: Zika virus, Vero
[5] = system: mCherry-ZIKV in human neuronal progenitor cells; assay: microbe, parasite or virus in culture; format: cell-based, Zika virus; conditions: for IC50 / AC50: Zika virus, Neuronal progenitor cell; for IC50: read-out: NPC (ZIKV Antiviral Assays), IC50
[6] = system: DENV (Dengue virus type 2, strain New Guinea C)
[7] = system: ZIKV
[8] = system: WNV (Kern515/WN02)
[9] = system: YFV (YFV 17D)
[10] = in vitro; conditions: African green monkey; for CC50 at 48 h: Vero cells
[11] = in vitro; conditions: human
[12] = in vitro; conditions: human; remark: listed apart in the source
[13] = Zika virus, Vero, read-out: Log AC50 (M) (converted)
[14] = read-out: Log AC50 (M) (converted)

| SMILES | Efficacy [1] | AC50 ([1]; Zika virus, Vero) [M] | IC50 ([1]; Zika virus, Vero) [µM] | AC50 [1, 13] [M] | IC50 [2] [µM] | IC50 [3] [µM] | CC-v2 (curve class of the dose response curve) [4] | Efficacy (difference between neutral response and maximum compound response) [4] | Max Resp (difference between neutral response and response at highest compound concentration) [4] | CC-v2 (curve class) [5] | Efficacy [5] | Max Resp [5] | IC50 [5] [µM] | DENV active Yes/No [6] | ZIKV active Yes/No [7] | WHV active Yes/No [8] | YFV active Yes/No [9] | CC50 at 48 h [10] [µM] | CC50 at 24 h [11] [µM] | AC50 [4] [M] | also measured |
| --- | --- | --- | --- | --- | --- | --- | --- | --- | --- | --- | --- | --- | --- | --- | --- | --- | --- | --- | --- | --- | --- |
| CCC[S+](=O)([O-])Nc1ccc(F)c(C(=O)c2c[nH]c3ncc(-c4ccc(Cl)cc4)cc23)c1F [NCGC00250399-05] | -40.165 | 1.46e-06 | 1.46 | 1.46e-06 | 8.31 | 9.28 | 5 | 0 | -69.344 | 4 | -22.524 | -6.687 | 35.5 | Yes | Yes | No | No |  |  |  | SI value DENV (CC50/EC50) [6]: 4.3; Selectivity Index DENV (CC50/EC50) [6]: 4; SI value ZIKV (CC50/EC50) [7]: 14; Selectivity Index ZIKV (CC50/EC50) [7]: 14; SI value WHV (CC50/EC50) [8]: 2; Selectivity Index WHV (CC50/EC50) [8]: 2; CC50 [10]: > 50 µM; CC50 [11]: > 30 µM |
| COc1ccc2c(c1)C=C1Cn3c-2c(C2CCCCC2)c2ccc(cc23)C(=O)N[S+](=O)([O-])N(C)CCOCCN(C)C1=O [NCGC00482982-02] | -39.12 | 2.59e-05 | 25.9 | 2.59e-05 | 1.66 | 20.8 | -1.4 | -60.775 | -100.29 | 4 | -30.77 | -24.808 | 5.01 | No | No | No | No | > 50 | > 30 |  | CC-v2 (curve class classification of the dose response curve) [1]: -2.2; CC50 [12]: > 30 µM |
| Nc1ccn([C@@H]2O[C@H](CO)[C@@H](O)C2(F)F)c(=O)n1 [NCGC00168784-08, gemcitabine, reference compound] | -24.938 | 9.2e-06 | 9.2 | 9.2e-06 | > 48 | 0.02 | -1.2 | -61.697 | -99.896 | -1.2 | -65.573 | -52.766 | 6.31 |  |  |  |  | > 50 | 16.3 | 2.67e-09 | AC50 [4, 14]: 2.67e-09 M; Antiviral activity in human NPC [5]: moderate antiviral activity; AC50 [5]: 6.31e-06 M; AC50 [5, 14]: 6.31e-06 M; CC50 [12]: > 30 µM |
| C=C(F)c1sc(CNCCCNc2cc(=O)c3ccccc3[nH]2)c(C)c1Br [NCGC00386616-01] | -30.953 | 2.06e-05 | 20.6 | 2.06e-05 | 1.05 | 8.27 | -1.4 | -70.696 | -94.173 | -2.2 | -88.323 | -56.18 | 39.8 | No | No | No | No | > 50 | > 30 |  | Antiviral activity in human NPC [5]: moderate antiviral activity; AC50 [5]: 3.98e-05 M; AC50 [5, 14]: 3.98e-05 M |
| CC1(C)CC2C(O)C3=C(CC(C)(O)C2C1)C(=O)OC3 (stereo not shown) [NCGC00385131-01] | -83.269 | 2.31e-05 | 23.1 |  | 8.31 | 0.02 | -1.2 | -69.698 | -44.202 |  |  |  |  | No | No | No | No | > 50 |  | 2.67e-09 | Curve class [1]: -3; AC50 ([1]; Zika virus, Vero, read-out: Log AC50 (converted)): 2.31e-05 M; Emax ([1]; Zika virus, Vero, read-out: Max response): 3.01%; AC50 [4, 14]: 2.67e-09 M; CC50 [12]: > 30 µM |
| OC1C=C2C3CN(Cc4cc5c(cc43)OCO5)C2CC1O (stereo not shown) [NCGC00385948-01] | -79.681 | 2.59e-05 |  | 2.59e-05 | 4.17 | 9.28 | -1.2 | -44.826 | -97.729 | -1.2 | -64.358 | -62.953 | 10 | Yes | Yes | Yes | No |  |  | 2.67e-06 | CC-v2 (curve class classification of the dose response curve) [1]: -2.2; AC50 [4, 14]: 2.67e-06 M; Antiviral activity in human NPC [5]: effectively inhibited ZIKV in NPC cells; AC50 [5]: 1e-05 M; AC50 [5, 14]: 1e-05 M; Activity against DENV [6]: active against DENV; SI value DENV (CC50/EC50) [6]: 16; Selectivity Index DENV (CC50/EC50) [6]: 16; Activity against ZIKV [7]: weaker against WNV and ZIKV; SI value ZIKV (CC50/EC50) [7]: 4.7; Selectivity Index ZIKV (CC50/EC50) [7]: 5; Activity against WNV [8]: weaker against WNV and ZIKV; SI value WHV (CC50/EC50) [8]: 7.6; Selectivity Index WHV (CC50/EC50) [8]: 8; CC50 [10]: > 50 µM; CC50 [11]: > 30 µM |
| CC(C)(C#N)c1ccc(N2C(=O)OCc3cnc4ccc(-c5cnc6ccccc6c5)cc4c32)cc1 [NCGC00386292-05] | -23.858 | 4.61e-06 | 4.61 | 4.61e-06 | 0.04 | 2.93 | -1.2 | -67.723 | -93.524 |  | -38.419 | 3.825 | 25.1 | No | Yes | No | No | > 50 | > 30 | 5.32e-07 | AC50 [4, 14]: 5.32e-07 M; Antiviral activity in human NPC [5]: moderate antiviral activity; AC50 [5]: 2.51e-05 M; AC50 [5, 14]: 2.51e-05 M; SI value ZIKV (CC50/EC50) [7]: 3; Selectivity Index ZIKV (CC50/EC50) [7]: 3 |
